Laboratory results published in article PMC10089316, “Adeno-Associated virus 8 delivers an immunomodulatory peptide to mouse liver more efficiently than to rat liver” (PLOS ONE, 2023).

Assays:
mKv1.3 channels = molecular target: T1, mKv1.3 channels (Mus musculus, UniProt P16390); test: whole-cell patch-clamp block of mKv1.3 by synthetic ShK-235; assay type: cell-based; conditions: Port-a-Patch, L929 fibroblasts stably expressing mKv1.3, 200 ms pulses −80 to 40 mV, 20–25°C, pH 7.4, N = 3 cells per concentration, mean ± SEM, read-out: IC50 for Kv1.3 block
T1 construct: expressed in transfected cells
T1 sequence (P16390 whole entry): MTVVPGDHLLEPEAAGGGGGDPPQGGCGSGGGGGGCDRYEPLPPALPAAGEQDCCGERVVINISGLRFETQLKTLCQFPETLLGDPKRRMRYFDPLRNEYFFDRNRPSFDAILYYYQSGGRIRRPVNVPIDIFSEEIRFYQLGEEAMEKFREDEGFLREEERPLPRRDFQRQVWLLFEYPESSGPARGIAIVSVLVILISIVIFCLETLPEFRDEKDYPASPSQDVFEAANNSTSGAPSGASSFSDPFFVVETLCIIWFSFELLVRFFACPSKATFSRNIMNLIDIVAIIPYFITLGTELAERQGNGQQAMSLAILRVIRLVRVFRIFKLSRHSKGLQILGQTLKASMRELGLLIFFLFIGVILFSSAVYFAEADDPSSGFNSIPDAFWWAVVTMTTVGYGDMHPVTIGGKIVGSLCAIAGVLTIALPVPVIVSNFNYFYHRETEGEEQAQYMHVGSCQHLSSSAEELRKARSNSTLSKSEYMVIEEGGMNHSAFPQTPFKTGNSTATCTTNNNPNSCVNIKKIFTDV
Procedure: Mouse L929 fibroblasts stably expressing mKv1.3 channels were a kind gift from Dr. Chandy (Nanyang Technological University, Singapore). They were maintained in Dulbecco’s modified Eagle’s medium (DMEM) supplemented with 10% heat-inactivated fetal bovine serum (FBS), 4 mM L-glutamine, 1 mM sodium pyruvate, and 500 μg/mL G418 (Calbiochem/EMD Millipore, Billerica, MA) and cultured to 60~70% confluence.
Patch clamp assays were conducted at room temperature (20–25°C) in the whole-cell configuration using a Port-a-Patch system (Nanion Technologies, Livingston, NJ) connected to a HEKA EPC10-USB amplifier controlled with the PatchMaster software (HEKA, Germany). The external solution contained 1 mM MgCl2, 160 mM NaCl, 4.5 mM KCl, 2 mM CaCl2, and 10 mM Hepes; pH was adjusted to 7.4 with NaOH. […]
The stock of synthetic ShK-235, the supernatants of transfected HEK293T cells, and the rodent serum samples were diluted in the external solution immediately before use and tested in triplicates without any further processing. Peak Kv1.3 currents were recorded before addition of the samples and after reaching steady-state block and results were analyzed using IGOR Pro software (WaveMetrics, Portland, OR) and the IC50 of channel block was calculated by nonlinear regression using Prism software (GraphPad Software, San Diego, CA).

[1] = cited from earlier work
Description: All constructs contain both ShK-235 and EGFP.

Kv1.3 = conditions: cited from earlier work
Description: (§1) The voltage-gated Kv1.3 potassium channel has gained interest as a therapeutic target for obesity, as mice lacking Kv1.3 or treated with a Kv1.3 blocker are protected from high-fat diet (HFD)-induced obesity. Kv1.3 is also a target for autoimmune diseases, as […] (CCR7)^- effector memory T (TEM) lymphocytes express high levels of Kv1.3 upon activation and blocking of Kv1.3 inhibits their function. […] However, S ...

[2] = tested on: other Kv1.x channels and the KCa3.1 channel; conditions: cited from earlier work
Description: as §1

| Compound | IC50 (mKv1.3 channels) | immunogenicity [1] | IC50 (Kv1.3) | block of other Kv1.x channels and KCa3.1 [2] |
| --- | --- | --- | --- | --- |
| CC[C@H](C)[C@@H]1NC(=O)[C@H](CO)NC(=O)[C@H](Cc2c[nH]cn2)NC(=O)[C@H](CCCCN)NC(=O)[C@@H]2CSSC[C@@H]3NC(=O)[C@H]([C@@H](C)O)NC(=O)[C@H](CCCCN)NC(=O)[C@H](CCCNC(=N)N)NC(=O)[C@H](CSSC[C@H](NC(=O)[C@H](CCCNC(=N)N)NC(=O)[C@H](CO)NC(=O)[C@H](CCCCN)NC(=O)[C@@H]4CCCN4C(=O)[C@H]([C@@H](C)CC)NC(=O)[C@H]([C@@H](C)O)NC(=O)[C@H](CC(=O)O)NC(=O)[C@H]([C@@H](C)CC)NC(=O)[C@@H](NC(=O)[C@H](CO)NC(=O)[C@@H](N)CCCNC(=N)N)CSSC[C@@H](C(=O)N[C@@H](C)C(=O)O)NC(=O)[C@H]([C@@H](C)O)NC(=O)CNC3=O)C(=O)N[C@@H]([C@@H](C)O)C(=O)N[C@@H](C)C(=O)N[C@@H](Cc3ccccc3)C(=O)N[C@@H](CCCCN)C(=O)N2)NC(=O)[C@H](Cc2ccccc2)NC(=O)[C@H](CO)NC(=O)[C@H](CC(C)C)NC(=O)[C@H](CCCNC(=N)N)NC(=O)[C@H](Cc2ccc(O)cc2)NC(=O)[C@H](CCCCN)NC1=O [ShK-235] | 0.0709 ± 0.0219 nM | not immunogenic |  |  |
| ShK: small peptide produced by the sea anemone Stichodactyla helianthus, one of the most potent blockers of Kv1.3 (RSCIDTIPKSRCTAFKCKHSIKYRLSFCRKTCGTCA) |  |  | 0.01 nM | in the pM to low nM range |
